Laboratory results: the supplement of paper PMC10307832

Experiments:
Test in all cases: relative viability (nuclei count vs DMSO), 5 days (fraction); higher = more cells survive
TGX 221 + Olaparib = compound: CC1=CN2C(=O)C=C(N=C2C(=C1)C(C)NC3=CC=CC=C3)N4CCOCC4 [TGX 221] + O=C(c1cc(Cc2n[nH]c(=O)c3ccccc23)ccc1F)N1CCN(C(=O)C2CC2)CC1 [Olaparib] (partner 8 µM)
In short: (§1)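 The day after seeding in 1536-well plates, lung cancer cell lines were treated by pin tool with a single drug, or with a fixed anchor-drug dose together with five library-drug doses (not always all listed) in √10 steps. After 5 days, a combined fix-and-stain solution (final 0.05% Triton X-100, 1% formaldehyde, 1 ug/ml Hoechst) was added. Nuclei counted on 4× images gave relative viability as treated counts over vehicle counts, reported as the median of duplicate plates.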

Ricolinostat + Lapatinib = compound: O=C(CCCCCCNC(=O)c1cnc(N(c2ccccc2)c2ccccc2)nc1)NO [Ricolinostat] + CS(=O)(=O)CCNCc1ccc(-c2ccc3ncnc(Nc4ccc(OCc5cccc(F)c5)c(Cl)c4)c3c2)o1 [Lapatinib] (partner 2 µM)
In short: as §1

TGX 221 + Luminespib = compound: CC1=CN2C(=O)C=C(N=C2C(=C1)C(C)NC3=CC=CC=C3)N4CCOCC4 [TGX 221] + CCNC(=O)c1noc(-c2cc(C(C)C)c(O)cc2O)c1-c1ccc(CN2CCOCC2)cc1 [Luminespib] (partner 0.01 µM)
In short: as §1

[1] = compound: O=C(CCCCCCNC(=O)c1cnc(N(c2ccccc2)c2ccccc2)nc1)NO [Ricolinostat] + Nc1ncn([C@H]2C[C@H](O)[C@@H](CO)O2)c(=O)n1 [Decitabine] (partner 2 µM)
In short: as §1

Cell Line	relative viability (TGX 221 + Olaparib; first compound 0.08 µM)	relative viability (TGX 221 + Olaparib; first compound 0.253 µM)	relative viability (TGX 221 + Olaparib; first compound 0.8 µM)	relative viability (TGX 221 + Olaparib; first compound 2.53 µM)	relative viability (TGX 221 + Olaparib; first compound 8 µM)	relative viability (Ricolinostat + Lapatinib; first compound 0.08 µM)	relative viability (Ricolinostat + Lapatinib; first compound 0.253 µM)	relative viability (Ricolinostat + Lapatinib; first compound 0.8 µM)	relative viability (Ricolinostat + Lapatinib; first compound 2.53 µM)	relative viability (TGX 221 + Luminespib; first compound 0.08 µM)	relative viability (TGX 221 + Luminespib; first compound 0.253 µM)	relative viability (TGX 221 + Luminespib; first compound 0.8 µM)	relative viability (TGX 221 + Luminespib; first compound 2.53 µM)	relative viability (TGX 221 + Luminespib; first compound 8 µM)	relative viability ([1]; first compound 0.08 µM)	relative viability ([1]; first compound 0.253 µM)	relative viability ([1]; first compound 0.8 µM)	relative viability ([1]; first compound 2.53 µM)
NCI-H1993	0.945	1.02	1.08	0.936	0.938	0.714	0.867	0.796	0.91	0.781	0.711	0.724	0.869	0.805	0.571	0.588	0.599	0.709
NCI-H1395	0.452	0.438	0.411	0.399	0.393		1.11	0.881	0.833	0.684	0.721	0.603	0.514	0.453		0.731	0.652	0.663
SW 1573	0.48	0.422	0.511	0.406	0.479	0.941	1.23	1.12	1	0.211	0.353	0.247	0.221	0.278	0.487	0.496	0.546	0.416
BEN	1.16	0.887	1.05	0.882	1.01	0.613	0.643	0.588	0.423	0.26	0.234	0.4	0.378	0.332	0.578	0.78	0.567	0.581
RERF-LC-KJ	0.834	0.756	0.996	0.844	0.874	0.828	0.864	0.858	0.808	1.13	1.13	1.26	1.21	1.02	0.77	0.609	0.672	0.618
UMC-11	0.379	0.503	0.346	0.319	0.338	0.699	0.944	0.906	0.314	1.03	0.957	1.03	1.04	1.09	0.551	0.543	0.561	0.417
HOP-62	0.408	0.435	0.536	0.707	0.585	0.935	0.88	0.923	0.843	0.919	0.951	0.981	0.88	0.632	0.217	0.186	0.144	0.221
NCI-H2023	0.539	0.411	0.549	0.46	0.405	0.552	0.91	0.792	0.487	0.711	0.555	0.685	0.603	0.386	0.234	0.233	0.227	0.204
NCI-H596	0.662	0.675	0.746	0.744	0.572	0.985	1.08	1	0.743	0.992	1.02	1.04	0.881	0.935	0.992	0.981	0.99	1.67
LOU-NH91	0.95	0.904	0.892	0.951	0.783		0.872	0.778	0.78	0.332	0.358	0.323	0.317	0.31		0.794	0.826	0.887
COR-L23	0.368	0.326	0.405	0.315	0.334	1.05	0.835	0.8	0.588	0.666	0.684	0.638	0.797	0.683	0.402	0.493	0.358	0.332
EPLC-272H	0.786	0.582	0.845	0.483	0.504		0.978	1.03	0.884	0.346	0.419	0.388	0.28	0.177		0.36	0.368	0.325
H3255	0.508	0.536	0.561	0.547	0.499	0.189	0.3	0.2	0.207	0.784	0.937	0.918	0.981	0.887	0.522	0.598	0.538	0.426
NCI-H650	0.409	0.359	0.371	0.348	0.334		0.888	0.734	0.504	0.759	0.774	0.783	0.721	0.753	0.312	0.301	0.315	0.306
NCI-H1944		0.364	0.409	0.371	0.379	0.638	0.85	0.819	0.854	0.649	0.742	0.795	0.587	0.399	0.409	0.37	0.382	0.385
NCI-H23	0.302	0.287	0.284	0.296	0.294	1.16	1.25	0.998	0.773	0.196	0.225	0.217	0.21	0.208	0.325	0.316	0.319	0.323
NCI-H358	0.626	0.565	0.705	0.545	0.582	0.311	0.505	0.501	0.519	0.285	0.37	0.319	0.007	0.29	0.247	0.212	0.214	0.179
NCI-H2405	0.803	0.886	0.858	0.801	0.75	0.858	1.04	1.08	1.04	0.622	0.533	0.599	0.623	0.47	0.671	0.749	0.804	0.797
